{"source": "patent US4980378A", "about": "“Biodegradable absorption enhancers” (priority 1988, dated 1990)", "key": {"[1]": {"assay": "Transdermal penetration of indomethacin from ointment across shed snake skin (vertical diffusion cell)", "type": "in vitro ADME, black rat snake (Elahe obsoleta)", "experimental": "Ointments were prepared by mixing 100 mg (1%) indomethancin, 500 mg (5%) penetration enhancer and 9400 mg (94%) petrolatum at 55°-60°C. to give a homogenous dispersion of indomethacin. In each transport study, 30 mg of ointment containing […] of indomethacin was applied.\n(§1) A whole shed snake skin from the molt of adult Elahe obsoleta (black rat snake) was obtained from the Animal Care Unit of the University of Kansas. Only the dorsal side of the shed snake skin was used for in vitro penetration studies. The head and tail sections of the snake skin was removed and the remainder of the skin was cut randomly into sections of approximately 2 inches by 2 inches. Each piece of snake skin was hydrated overnight by first soaking the skin in water (about 5 to 10 minutes) until it could be stretched and then placing it on a plastic pan which held some water. The pan was floated on a water-bath at 32° C. overnight.\nFor the transport studies using ointments, approximately 30 mg of ointment prepared as described in Example 5 was smeared evenly on an area of the 2\"×2\" snake skin. The ointment was smeared into an essentially circular area approximately 1.77 cm^2 and having a diameter of approximately 15 mm. The snake skin was then mounted on top of the receptor cell of a vertical diffusion cell assembly in which a small magnetic bar was inserted and filled with an isotonic buffer. A rubber o-ring was placed on top of the skin followed by the placement of the donor cell. The two cells were clamped together and transferred to a water-bath (32° C.) which had several magnetic stirrers placed underneath to stir the contents of the diffusion cells. Samples from the cells were withdrawn periodically by gravity by inputting fresh isotonic buffer into the cell inlets. The first five drops were discarded and the following […] drops were collected for analysis. These nine drops of sample solution were approximately equivalent to about 0.20 ml.\nThe samples were analyzed for the concentration of indomethacin using a Perkin-Elmer ISS-100 HPLC apparatus with a Perkin-Elmer LC90 UV spectrophotometric detector and a Perkin-Elmer ISS-100 automatic sampler with the detection wavelength set at 260 nm. The peak heights of the chromatograms were recorded on a Perkin-Elmer LCI-100 Laboratory Computing Integrator. A reverse phase column, RP-8 Spheri-5, 4.6×100 mm and a guard column OD-GU, purchased from Brownlee Labs, were used in conjunction with the HPLC system. The flow rate was 1.0 ml/min and the solvent system was a mixture of acetonitrile (50%) and a 0.01 M phosphate buffer (pH 3.0) (50%).\nThe concentration in each sample was interpreted from a standard curve which was obtained by plotting the peak areas obtained from HPL chromatograms versus four different standard solutions of indomethacin. The standard curves were linear over a range of concentrations from 2.5 to 10 µg/ml. The receptor cell volume was calibrated by weighing the amount of water in the cell. The first sample needs no concentration correction. However, the concentration in the subsequent samples can be corrected by the following equation: [formula] where Xi is number of microgram of indomethacin in the i^th sample. Yi is the concentration correction for i-l sample. The volume withdrawn for each sampling is about 0.20 ml.\n(§2) Statistical analyses were performed using the Student's t-test.\nRelative penetration enhancements (%) were calculated by [formula]\nAzone was selected as the for comparison since it is claimed to excellent enhancer although it is too toxic; was assigned a value of 100% enhancement.\nPenetration that was equal the penetration of Azone was reported as 100% rela penetration. All of the relative enhancements in Table 3 are based on the early stage or hours o penetration studies.\nAt least 3 or 4 cells were used for each enhancer and mean val (μg) of indomethacin in the receptor cells are plotted versus time in hours."}, "[2]": {"conditions": "intraperitoneal administration; cited from earlier work"}, "[3]": {"type": "in vitro ADME, black rat snake (Elahe obsoleta)", "experimental": "Patches were prepared by first dissolving 300 mg indomethacin, 400 mg penetration enhancer, 300 mg polyethylene glycol 400 and 800 mg hydroxypropyl cellulose in 20 ml of ethanol. That viscous solution was spread on a backing layer, which was a film of ethoxycellulose, with 0.9 mm of thickness. After drying at 40° C. for one hour, two layer film patches were obtained. Circles with a diameter of 12 mm were used for the transport studies.\nas §1, §2"}, "[4]": {"conditions": "indomethacin ointment, 5% enhancer, relative to Azone = 100%, early stage of penetration studies, 32° C."}}, "note": "Read-outs that look alike come from different tables or passages of the source."}
{"smiles": "CCCCCCCCCCCCN1CCCCCC1=O", "note": "[Azone, 1-Dodecylazacycloheptane-2-One, reference compound]", "values": [{"measurement": "Relative Enhancement", "setting": "[1]", "value": 100, "unit": "%"}, {"measurement": "indomethacin detected in receptor cells", "setting": "[1]; ointment, early stage of less than 12 hours", "value": "only a few"}, {"measurement": "LD50", "setting": "[2]", "value": "approximately 232 mg/kg"}]}
{"smiles": "CCCCCCCCCCCCCCOC(=O)CN(C)C", "note": "[Compound No. 1, tetradecyl (N,N-dimethylamino)acetate]", "values": [{"measurement": "Relative Enhancement", "setting": "[1]; [4]", "value": 100, "unit": "%"}]}
{"smiles": "CCCCCCCCCCCCOC(=O)CN(C)C", "note": "[Compound No. 2, dodecyl (N,N-dimethylamino)acetate]", "values": [{"measurement": "Relative Enhancement", "setting": "[1]", "value": 200, "unit": "%"}, {"measurement": "speed of effect compared with Azone", "setting": "[1]", "value": "faster than that of Azone"}, {"measurement": "transport of indomethacin compared with that accelerated by Azone", "setting": "[1]", "value": "twice"}, {"measurement": "steady state flux for indomethacin", "setting": "[3]", "value": "3.84 ± 0.57", "unit": "µg/h"}, {"measurement": "steady state flux ratio versus dodecyl alcohol", "setting": "[3]", "value": 2.5, "unit": "times"}, {"measurement": "time to reach steady state flux of indomethacin", "setting": "[3]", "value": "about 2 hours"}]}
{"smiles": "CCCCCCCCOC(=O)CN(C)C", "note": "[Compound No. 4, octyl (N,N-dimethylamino)acetate]", "values": [{"measurement": "Relative Enhancement", "setting": "[1]", "value": 250, "unit": "%"}]}
{"smiles": "CCCCCCCCCCCCOC(=O)CN(CC)CC", "note": "[Compound No. 5, dodecyl (N,N-diethylamino)acetate]", "values": [{"measurement": "Relative Enhancement", "setting": "[1]; [4]", "value": 70, "unit": "%"}]}
{"smiles": "CCCCCCCCCCOC(=O)CN1CCN(C)CC1", "note": "[Compound No. 6, Decyl (4-methyl-1-piperazinyl)acetate]", "values": [{"measurement": "Relative Enhancement", "setting": "[1]; [4]", "value": 40, "unit": "%"}]}
{"smiles": "CCCCCCCCCCOC(=O)CN(C)C", "note": "[compound 3, decyl (N,N-dimethylamino)acetate]", "values": [{"measurement": "Relative Enhancement", "setting": "[1]; [4]", "value": 380, "unit": "%"}]}
{"smiles": "CCCCCCCCCCCCO", "note": "[dodecyl alcohol, reference compound]", "values": [{"measurement": "steady state flux for indomethacin", "setting": "[3]", "value": "1.49 ± 0.21", "unit": "µg/h"}, {"measurement": "time to reach steady state flux of indomethacin", "setting": "[3]", "value": "about 5 hours"}]}
